According to ChEMBL document CHEMBL1139161, “[d4U]-butyne-[HI-236] as a non-cleavable, bifunctional NRTI/NNRTI HIV-1 reverse-transcriptase inhibitor” (Bioorg Med Chem Lett, 2007):

Tests used:
[1] = Therapeutic index, ratio of IC50 for human MT2 cells to EC50 for HIV1 3B; assay type: cell-based; settings: read-out: Ratio IC50/EC50
MT2 = assay: Cytotoxicity against human MT2 cells; assay type: cell-based
[2] = system: Human immunodeficiency virus 1; assay: Antiviral activity against HIV1 3B in MT2 cells assessed as inhibition of viral-mediated T-cell death by MTT method; assay type: functional, organism-based; settings: Human immunodeficiency virus 1, 3B

With COc1ccc(OCCC#Cc2cn(C3C=CC(CO)O3)c(=O)[nH]c2=O)c(CCNC(=S)Nc2ccc(Br)cn2)c1 (configuration not stated) as the molecule, how does the selectivity ratio [1] read?
The selectivity ratio was 68.

And the IC50 (MT2)?
The IC50 was 17000 nM.

And the EC50 [2]?
The EC50 was 250 nM.

For Cc1cn([C@H]2C=C[C@@H](CO)O2)c(=O)[nH]c1=O [STAVUDINE], which selectivity ratio [1] is on record?
The selectivity ratio was over 50.

And the IC50 (MT2)?
The IC50 was over 100000 nM.

And the EC50 [2]?
Its EC50 is 2000 nM.

For COc1ccc(OC)c(CCNC(=S)Nc2ccc(Br)cn2)c1, which selectivity ratio [1] is on record?
The selectivity ratio was over 24.

What about the IC50 (MT2) of the same molecule?
Its IC50 is over 1000 nM.

What about the EC50 [2] of the same molecule?
Its EC50 is 42 nM.

Which selectivity ratio [1] does the source give for C#CCCOc1ccc(OC)cc1CCNC(=S)Nc1ccc(Br)cn1 here?
The selectivity ratio was over 44.

What about the IC50 (MT2) of the same molecule?
Its IC50 is over 1000 nM.

What about the EC50 [2] of the same molecule?
Its EC50 is 23 nM.
